The values that follow come from paper PMC3086806, “Mining a Cathepsin Inhibitor Library for New Antiparasitic Drug Leads” (PLoS Neglected Tropical Diseases, 2011).

The Ki is the dissociation constant of the complex between target and ligand, obtained from inhibition or displacement. In general, GI50 refers to the concentration giving 50% growth inhibition. The term IC50 denotes the concentration that inhibits the measured activity by half.

One series has as its target human cathepsin B. Also noted: method as in data provided by Celera Genomics. Particulars: historical data; ref data provided by Celera Genomics; read-out: Ki catB; cited from earlier work.
Series [1] concerns W2-strain P. falciparum parasites. Description: P. falciparum growth inhibition assay. In kind it is cell-based, Plasmodium falciparum. As to conditions: for GI50: Plasmodium falciparum, read-out: GI50 P. falc. W2. The protocol:
The growth inhibition assay for P. falciparum was conducted as described previously. W2-strain P. falciparum parasites (1% parasitemia, 2% hematocrit) were cultured at 37°C in human red blood cells under the atmosphere of 3% O2, 5% CO2 balance N2 in 0.2 mL of per well in medium RPMI-1640 supplemented with 10% human serum in duplicate 96-well flat bottom culture plates in the presence of inhibitors. Tested compounds were serially diluted 1∶3 in the range 10,000 – 4.6 nM, with maximum DMSO concentration of 0.1%. Following 48 hours of incubation, the medium was removed and the cells were fixed in 2% formaldehyde in PBS. Parasite growth was evaluated by flow cytometry on a FACsort (Becton Dickinson) equipped with AMS-1 loader (Cytek Development) after staining with 1 nM DNA dye YOYO-1(Molecular Probes) in 100 mM NH4Cl, 0.8% NaCl. Parasitemias were determined from dot plots (forward scatter vs. fluorescence) using […] software (Becton Dickinson). IC50 values for growth inhibition were determined from plots of percentage control parasitemia over inhibitor concentration using GraphPad Prism software.

The next series concerns the target T1, falcipain-2 (Plasmodium falciparum, UniProt Q8I6U4).
T1 construct: made in house
T1 sequence (Q8I6U4 244-484): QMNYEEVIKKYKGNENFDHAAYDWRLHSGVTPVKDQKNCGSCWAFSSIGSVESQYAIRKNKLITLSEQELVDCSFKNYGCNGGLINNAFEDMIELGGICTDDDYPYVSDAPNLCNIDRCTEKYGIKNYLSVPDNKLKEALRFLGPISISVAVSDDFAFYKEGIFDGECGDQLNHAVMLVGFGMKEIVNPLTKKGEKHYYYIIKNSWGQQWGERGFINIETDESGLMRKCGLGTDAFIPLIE
Put plainly: Falcipain-2 protease inhibition assay (Z-Leu-Arg-AMC). In kind it is biochemical. The protocol:
(§1) Recombinant cruzain, rhodesain, TbCatB, falcipain-2 and falcipain-3 were expressed as described previously, [39], [40], [41], [42]. Inhibitor stock solutions were prepared in DMSO and screened at 0.1 µM for cruzain and rhodesain, 1 µM for TbCatB and 50 nM for falcipain-3 (0.5% DMSO in assay). […] Protease inhibition assays for cruzain and rhodesain were carried out in 96 well plate format as described previously. Cruzain (4 nM), rhodesain (4 nM) or TbCatB (258 nM) was incubated with test compound in 100 mM sodium acetate, pH 5.5, containing 5 mM DTT and 0.01% Triton X-100 (buffer A), for 5 min at room temperature (the higher concentration of TbCatB was required due to its lower intrinsic activity against the fluorogenic substrate). Then buffer A containing Z-Phe-Arg-AMC (Bachem) was added to enzyme-compound mixture to give 10 µM substrate in a final assay volume of 200 µL. The rate of free AMC release was measured at excitation and emission wavelengths of 355 and 460 nm, respectively, with a microtiter plate spectrofluorimeter (SpectraMax M5, Molecular Devices) for 3 min. Percentage inhibition of test compound was calculated relative to the DMSO control (0% inhibition control). IC50 values were determined with Prism 4 software (GraphPad, San Diego, CA) using sigmoidal dose-response variable slope model.
(§2) Protease inhibition assays for falcipain-2 and falcipain-3 were carried out in 96 well plate format as described previously, [43] with modification for end-point readout. Falcipain-2 (21 nM) or falcipain-3 (78 nM) was incubated with test compound for 10 min at room temperature in 200 mM sodium acetate, pH 6, 10 mM DTT and 3.6% glycerol and 0.01% Triton X-100 (buffer B). Then buffer B containing Z-Leu-Arg-AMC (Bachem) was added to the enzyme-compound mixture to give 25 µM substrate in a final assay volume of 200 µL. After 15 min, 50 µL of 5 M acetic acid was added to each well to stop the reaction. End-point fluorescence was read in a spectrofluorimeter as above. The 0% inhibition control wells contained DMSO while 100% inhibition control wells contained 50 µM E-64 (Sigma). Percentage inhibition of test compound was calculated relative to the controls and IC50 curve fitting was performed with Prism 4 software as above.

Series [2] can be described thus: Jurkat cell cytotoxicity assay. In kind it is cell-based. As to conditions: human, Jurkat cells (clone E6-1), read-out: Cytotoxicity (% inhibition at 10 µM) Jurkat cells. The protocol:
Jurkat cells (clone E6-1) were grown in complete RPMI-1640 medium containing 10% FBS, 50 U/mL penicillin and 50 µg/mL streptomycin (Invitrogen) at 37°C under a humidified atmosphere and 5% CO2. For cytotoxicity testing, cells were diluted to 1×10^5 per ml in complete RPMI-1640 medium. Test compound stocks were prepared in 100% DMSO and screened at 10 µM against cells (1×10^4 cells per well) in sterile Greiner 96-well flat white opaque culture plates (0.5% final DMSO concentration). The 0% inhibition control wells contained 0.5% DMSO while 100% inhibition control wells contained 40 µM staurosporine. After compound addition, plates were incubated for 40 hr at 37°C. At the end of the incubation period, 50 µL of CellTiter-Glo™ reagent (Promega Inc., Madison, WI, USA) was added to each well and plates were placed on an orbital shaker at room temperature for 2 min to induce lysis. After a further 10 min incubation without shaking to stabilize the signal, the ATP-bioluminescence of each well was determined using an Analyst HT plate reader (Molecular Devices, Sunnyvale, CA, USA). Calculations of percentage inhibition and IC50 were performed similar to those in the T. brucei brucei assay.

The next series addresses T2, falcipain-3 (Plasmodium falciparum, UniProt Q8IIL0).
T2 construct: made in house
T2 sequence (Q8IIL0 243-492): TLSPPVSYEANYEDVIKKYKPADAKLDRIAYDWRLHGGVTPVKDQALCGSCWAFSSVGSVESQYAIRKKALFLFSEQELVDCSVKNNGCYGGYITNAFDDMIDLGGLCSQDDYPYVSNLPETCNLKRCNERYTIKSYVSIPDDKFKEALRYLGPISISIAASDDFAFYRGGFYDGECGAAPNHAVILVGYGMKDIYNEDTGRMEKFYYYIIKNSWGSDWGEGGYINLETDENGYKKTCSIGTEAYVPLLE
Put plainly: Falcipain-3 protease inhibition assay (Z-Leu-Arg-AMC). In kind it is biochemical. As for the experimental part: as §1, §2

A further series addresses human cathepsin L. Also noted: method as in data provided by Celera Genomics. As to conditions: historical data; ref data provided by Celera Genomics; read-out: Ki catL; cited from earlier work.
Another series concerns the target T3, cruzain (Trypanosoma cruzi, UniProt P25779).
T3 construct: made in house
Put plainly: Cruzain protease inhibition assay (Z-Phe-Arg-AMC). In kind it is biochemical. As for the experimental part: as §1

In series [3] the test system is T. brucei brucei clone 427-221a bloodstream forms. Put plainly: T. brucei brucei growth inhibition assay. In kind it is cell-based. Particulars: Trypanosoma brucei; 40 hours. As for the experimental part: The growth inhibition assay for T. brucei brucei was conducted as described previously. Bloodstream forms of the monomorphic T. brucei brucei clone 427-221a were grown in complete HMI-9 medium containing 10% FBS, 10% Serum Plus medium (Sigma Inc. St. Louis Mo. USA), 50 U/mL penicillin and 50 µg/mL streptomycin (Invitrogen) at 37°C under a humidified atmosphere and 5% CO2. […] 5 µL of each dilution was added to 95 µL of diluted parasites (1×10^4 cells per well) in sterile Greiner 96-well flat white opaque culture plates such that the final DMSO concentration was 0.5%. The 0% inhibition control wells contained 0.5% DMSO while 100% inhibition control wells contained 50 µM thimerosal (Sigma). After compound addition, plates were incubated for 40 hours at 37°C. At the end of the incubation period, 50 µL of CellTiter-Glo™ reagent (Promega Inc., Madison, WI, USA) was added to each well and plates were placed on an orbital shaker at room temperature for 2 min to induce lysis. After an additional 10 min incubation without shaking to stabilize the signal, the ATP-bioluminescence of each well was determined using an Analyst HT plate reader (Molecular Devices, Sunnyvale, CA, USA). Raw values were converted to log10 and percentage inhibition calculated relative to the controls. IC50 curve fittings were performed with Prism 4 software as above.

The target of the next series is T4, TbCatB (Trypanosoma brucei, UniProt Q6R7Z5).
T4 construct: made in house
T4 sequence (Q6R7Z5 23-340): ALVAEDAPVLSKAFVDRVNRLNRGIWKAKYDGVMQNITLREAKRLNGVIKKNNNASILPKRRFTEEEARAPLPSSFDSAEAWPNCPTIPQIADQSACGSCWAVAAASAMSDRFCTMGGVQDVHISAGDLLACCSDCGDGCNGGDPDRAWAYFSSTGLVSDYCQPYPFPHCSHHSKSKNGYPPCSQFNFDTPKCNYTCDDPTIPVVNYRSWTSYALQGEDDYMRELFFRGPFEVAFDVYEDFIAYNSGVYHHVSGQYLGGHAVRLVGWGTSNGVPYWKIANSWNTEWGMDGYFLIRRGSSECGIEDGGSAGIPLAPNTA
Description: TbCatB protease inhibition assay (Z-Phe-Arg-AMC). In kind it is biochemical. As for the experimental part:
as §1

Series [4] has as its system intracellular T. cruzi (CA-I/72) in BESM cells. Description: T. cruzi amastigote growth inhibition assay. In kind it is cell-based. Particulars: Trypanosoma cruzi; infected BESM cells, 72 hours. As for the experimental part: The growth inhibition assay for the intracellular T. cruzi was conducted in 96-well plate format as described previously. Briefly, bovine embryo skeletal muscle (BESM) cells (2×10^3/well), seeded overnight, were infected with CA-I/72 T. cruzi trypomastigotes (2×10^3/well). Sixteen hours post-infection, test compounds (serial dilution concentrations starting from 20 µM) were added and assay plates were incubated for an additional 72 hours at 37°C with 5% CO2. Cells were then washed once in PBS, fixed with 4% paraformaldehyde and stained with DNA fluorescent dye DAPI (4′ 6-diamidino-2-phenylindole). The assay plates were then imaged in the IN Cell Analyzer 2000 (GE Healthcare) with the excitation and emission filters set of 350 nm and 460 nm, respectively, to detect DAPI signals. The feature extraction module in IN Cell Developer Toolbox 1.7 software was used to count host nuclei and parasite kinetoplasts by size difference.

The next series deals with T5, rhodesain (Trypanosoma brucei rhodesiense, UniProt Q95PM0).
T5 construct: made in house
T5 sequence (Q95PM0 entry or part of it): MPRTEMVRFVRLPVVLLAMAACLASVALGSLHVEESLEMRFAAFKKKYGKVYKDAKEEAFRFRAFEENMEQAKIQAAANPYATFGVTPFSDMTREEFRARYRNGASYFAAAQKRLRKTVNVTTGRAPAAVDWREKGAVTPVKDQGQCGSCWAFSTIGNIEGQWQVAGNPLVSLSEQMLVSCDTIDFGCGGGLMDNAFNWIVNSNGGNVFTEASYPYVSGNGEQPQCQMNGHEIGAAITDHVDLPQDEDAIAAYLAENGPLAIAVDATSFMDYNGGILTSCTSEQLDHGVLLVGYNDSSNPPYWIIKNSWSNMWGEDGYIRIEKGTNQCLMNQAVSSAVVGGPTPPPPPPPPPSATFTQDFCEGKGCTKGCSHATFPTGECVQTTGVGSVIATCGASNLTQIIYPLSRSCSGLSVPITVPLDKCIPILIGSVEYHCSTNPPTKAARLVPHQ
Put plainly: Rhodesain protease inhibition assay (Z-Phe-Arg-AMC). In kind it is biochemical. The protocol:
as §1

Where two headings read alike, the source gives them in different places.

T3 sequence (P25779 123-467): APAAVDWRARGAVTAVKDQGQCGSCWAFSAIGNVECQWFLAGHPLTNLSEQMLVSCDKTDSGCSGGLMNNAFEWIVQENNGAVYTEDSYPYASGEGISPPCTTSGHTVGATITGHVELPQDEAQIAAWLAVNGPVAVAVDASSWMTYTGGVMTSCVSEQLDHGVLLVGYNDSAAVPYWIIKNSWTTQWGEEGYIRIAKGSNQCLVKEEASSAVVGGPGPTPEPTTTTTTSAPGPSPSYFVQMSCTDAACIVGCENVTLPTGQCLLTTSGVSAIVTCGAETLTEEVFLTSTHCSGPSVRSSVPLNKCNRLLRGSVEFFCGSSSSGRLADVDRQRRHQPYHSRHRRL

For the molecule `CCCCC(NC(=O)C(CC(C)C)NC(C)=O)C(=O)c1nc2ccccc2o1` (stereo not drawn) [Compound 19c], the Ki at human cathepsin B is 920 nM; at human cathepsin L, 610 nM. Besides, the GI50 in series [1] (cultured W2 strain, 48 hours) came to 4800 nM. For the same molecule, the figures for the IC50 at falcipain-2 and on falcipain-3 (read-out: IC50 falcipain-3) were 66 nM and 17 nM, respectively. The cytotoxicity at 40 h, 10 µM in series [2] is less than 5%.
As for `CC(C)CC(NC(=O)N1CCOCC1)C(=O)NC(C=CS(=O)(=O)c1ccccc1)CCc1ccccc1` (stereo not drawn) [Compound 18b], the Ki at human cathepsin B is 210 nM. Moreover, in [1] (W2, 48 h), the GI50 amounted to 40 nM. Further, the values for the IC50 against falcipain-2 and against falcipain-3 were 3.6 nM and 29 nM, respectively. Moreover, in series [2], the cytotoxicity at 40 h, 10 µM is less than 5%.
Take `N#CC1(NC(=O)C(CC2CCCCC2)NC(=O)c2cccc(-c3cccc(S(N)(=O)=O)c3)c2)CCS(=O)(=O)CC1` (stereo not drawn) [Compound 20]: in [1] (cultured W2 strain, 48 hours), the GI50 stood at 170 nM and the “GI50 P. falc. W2” value is given as “sub-micromolar”. On falcipain-2, this molecule returned an IC50 of 7.5 nM. Besides, the cytotoxicity at 40 h, 10 µM in [2] is less than 5%. On falcipain-3 (read-out: IC50 falcipain-3), the IC50 amounted to 11 nM.
In the case of `CCCC[C@H](NC(=O)C1(NC(=O)c2ccc(-c3csc(N4CCN(C)CC4)n3)cc2)CCCCC1)C(=O)c1nc2ccccc2o1` [Compound 23b], the results for the Ki at human cathepsin B and on human cathepsin L were 610 nM and 280 nM, respectively. The IC50 against cruzain worked out at 380 nM; at TbCatB it was 1 nM; against rhodesain, 5000 nM. In addition, the GI50 in series [3] came out at 10500 nM; in series [4], 7700 nM. Besides, in series [2], the cytotoxicity at 40 h, 10 µM is less than 5%.
On to `CC(C)CC(NC(=O)N1CCOCC1)C(=O)NC(C=CS(=O)(=O)c1ccccc1)CCc1ccc(O)cc1` (stereo not drawn) [Compound 18a], for which the Ki was 440 nM at human cathepsin B and 3 nM on human cathepsin L. In series [1] (cultured W2 strain, 48 hours), the GI50 stood at 20 nM. Besides, the IC50 against falcipain-2 was 7.6 nM; on falcipain-3 (read-out: IC50 falcipain-3), 40 nM. In [2], the cytotoxicity at 40 h, 10 µM is less than 5%.
For the molecule `CC(C)CC(NC(c1ccc(-c2ccc(S(C)(=O)=O)cc2)cc1)c1nccs1)C(=O)NC1(C#N)CC1` (stereo not drawn) [Compound 21], the Ki was 6700 nM on human cathepsin B and 32 nM at human cathepsin L. The GI50 in [1] (cultured W2 strain, 48 hours) came to 870 nM. In series [1] (cultured W2 strain, 48 hours), the “GI50 P. falc. W2” value is on record as “sub-micromolar”. Moreover, the IC50 was 2 nM against falcipain-2 and 2.4 nM on falcipain-3 (read-out: IC50 falcipain-3). In addition, the cytotoxicity at 40 h, 10 µM in series [2] is less than 5%.
Regarding `CCC[C@H](NC(=O)C1(NC(=O)c2ccc(-c3csc(N4CCN(C)CC4)n3)cc2)CCCCC1)C(=O)c1nc2ccccc2o1` [Compound 23a], the values for the Ki at human cathepsin B and on human cathepsin L were 320 nM and 1100 nM, respectively. For the same molecule, the IC50 on cruzain was 30 nM; at TbCatB, 70 nM; against rhodesain it was 3900 nM. Further, the GI50 in [3] is 4200 nM; in [4], 19000 nM. Moreover, the cytotoxicity at 40 h, 10 µM in [2] is less than 5%.
